Experiments:
[1] = tested on: Mycobacterium tuberculosis H37Rv; assay: Inhibition of Mycobacterium tuberculosis H37Rv chorismate mutase expressed in Escherichia coli assessed as inhibition of prephenate formation at 50 uM after 1 to 5 mins by spectrophotometry
[2] = (§1) Inhibition of Mycobacterium tuberculosis H37Rv chorismate mutase expressed in Escherichia coli assessed as inhibition of prephenate formation after 1 to 5 mins by spectrophotometry
[3] = tested on: Mycobacterium tuberculosis H37Rv; assay: as §1

O=c1c2c3c(sc2nnn1-c1ccc2ccccc2c1)CCCC3
inhibition [1]: 37%

O=c1c2ccccc2nnn1-c1ccccc1
inhibition [1]: 12%

O=c1c2c3c(sc2nnn1-c1ccc(F)cc1)CCCC3
inhibition [1]: 25%

CCCc1nn(C)c2c(=O)n(-c3cccc(Cl)c3)nnc12
inhibition [1]: 30%

O=c1c2ccccc2nnn1-c1ccc2ccccc2c1
inhibition [1]: 40%

CCCc1nn(C)c2c(=O)n(-c3ccc(F)cc3)nnc12
inhibition [1]: 24%

CCCc1nn(C)c2c(=O)n(-c3ccc4ccccc4c3)nnc12
IC50 [2]: 15.1 µM
inhibition [3]: Dose-dependent effect
inhibition [1]: 61%

COc1cc(CCNc2c([N+](=O)[O-])cc(C(=O)O)cc2S(N)(=O)=O)cc(OC)c1
IC50 [2]: < 10 µM

CCCc1nn(C)c2c(=O)n(-c3ccccc3)nnc12
inhibition [1]: 10%
